Test results reported in US20220133672A1, “NOTCH INHIBITORS FOR THE TREATMENT OF VASCULAR MALFORMATIONS” (The University of North Carolina at Chapel Hill, priority 2018, published 2022).

Key:
[1] = system: human lymphatic endothelial cells (hLECs); experiment: Cell viability (trypan blue, Countess automated cell counter), hLEC; type: cell-based; settings: for change of hLEC viability at concentrations less than 20 μM: concentrations lower than 20 μM, vs untreated controls
Protocol: (§1) Dermal human lymphatic endothelial cells (hLECs) from human neonates (HMVEC-dLyNeo-Der, Lonza CC-2812) and human umbilical venous endothelial cells (HUVEC, Lonza CC-2517) were used for in vitro assays (below) within 8 passages and maintained in EGM-2MV bullet kit (Lonza CC3202) and EGM bullet kit media respectively.
(§2) Cell viability: To examine the effect of GSI on cell viability, hLEC and HUVEC cultures were incubated with effects of graded concentrations [2, 4, 6, 8, 10, 20 μM] of DAPT (Selleckchem, S2215) or RO4909297 (Selleckchem, S1575) [2-20 μM] for 24-72 hours. The percentage of viable cells was determined using the Countess automated cell counter (Thermofisher, C10227). Briefly, 80-90% confluent HUVEC and hLEC cultures were trypsinized, washed, and 10 μL of cell sample was mixed with an equal amount of 0.4% trypan blue stain and loaded onto the counting chamber.

[2] = system: Notch target gene Hey1 in HUVEC; experiment: Quantitative RT-PCR of Notch target gene Hey1 in HUVEC; type: cell-based, human; settings: 24 hrs post treatment
Protocol: RNA was extracted from cultured HUVEC or hLEC cells either 24 hrs or 72 hrs post treatment respectively using TRIzol reagent (Ambion 15596026) followed by DNase (Promega M6101) treatment and cDNA prepared using iScript (BioRad 170-8890). Quantitative RT-PCR was done on StepOnePlus (ABI) using TaqMan Gene Expression Master Mix (ThermoFisher Scientific 4369016). Gene expression was assessed using human Single-tube assays (Thermo Fisher Scientific/Applied Biosystems): GAPDH (4310884E), ACTB (Hs99999903_m1) and HEY1 (Hs01114113_m1). Comparative ΔΔCT method was used to analyze relative gene expression with ExpressionSuite Software (Thermo Fisher Scientific). Expression was normalized to housekeeping controls GAPDH and ACTB.

[3] = system: hLEC migration; experiment: Scratch migration assay, hLEC; type: cell-based, human
Protocol: (§3) Scratch migration assay—Migration assay was performed as per Liang et al., 2007^36, HUVECs and hLECs were grown to confluence in 24 well dishes, and then scratched with a 200 μL pipette tip. […] Four fields per well were imaged at T=0 hrs and at T=24 hrs post-scratch or T=72 hrs for HUVECs and hLECs respectively using an Olympus IX-81 inverted microscope equipped with a QImaging Retiga 4000R camera at 4× magnification. The percent change in migration was calculated by measuring the open area of the scratch at the above mentioned time-points (ImageJ). Results shown are representative of four independent experiments with HUVECs and three for hLECs.

[4] = system: HUVEC migration; experiment: Scratch migration assay, HUVEC; type: cell-based, human
Protocol: as §3

[5] = system: HUVEC tube/network formation; experiment: Tube formation assay in Matrigel matrix, HUVEC; type: cell-based, human; settings: for inhibition of angiogenesis in Notch-expressing HUVECs / number of branch points per field: HUVEC; for number of branch points per field: all concentrations (2-20 μM); for network formation by HUVEC: lowest concentration (2 μM), 24 hrs
Protocol: Tube formation assay—This assay was performed based on the protocol by Arnaoutova and Kleinman, 2010^37.

[6] = Cell viability (trypan blue, Countess automated cell counter), hLEC; type: cell-based, human; settings: human; 20 μM, hLEC; read-out: reduction of hLEC viability
Protocol: as §1, §2

C[C@H](NC(=O)Cc1cc(F)cc(F)c1)C(=O)N[C@H](C(=O)OC(C)(C)C)c1ccccc1 [DAPT, N-[N-(3,5-difluorophenacetyl-L-alanyl)]-S-phenylglycine t-butyl ester]
reduction of hLEC viability ([1]; 20 μM, hLEC): ~30%
change of hLEC viability at concentrations less than 20 μM [1]: without significant changes
lowest concentration that downregulated Hey1 expression in HUVECs [2]: 4 µM
hLEC migration reduced to ([3]; 8 μM, hLEC, 72 hrs post-scratch): about 50%
HUVEC migration reduced to ([4]; 8 μM, 24 hrs post-scratch): about 35%
inhibition of angiogenesis in Notch-expressing HUVECs [5]: effective in inhibiting angiogenesis
number of branch points per field [5]: significantly reduced
network formation by HUVEC [5]: dramatically reduced

CC(C)(C(=O)NCC(F)(F)C(F)(F)F)C(=O)N[C@@H]1C(=O)Nc2ccccc2-c2ccccc21 [RO4929097, 2,2-Dimethyl-N-[(7S)-6-oxo-6,7-dihydro-5H-dibenzo[b,d]azepin-7-yl]-N′-(2,2,3,3,3-pentafluoropropyl)malonamide]
cytotoxicity at 20 μM [6]: ~30%
change of hLEC viability at concentrations less than 20 μM [1]: without significant changes
lowest concentration that downregulated Hey1 expression in HUVECs [2]: 2 µM
effectiveness on hLEC migration compared with 8 μM DAPT ([3]; 6 μM, hLEC): more effective
reduction of migration in hLECs ([3]; at lower concentrations compared to HUVECs): greater than 50%
effectiveness on HUVEC migration compared with 8 μM DAPT ([4]; 6 μM): more effective
inhibition of angiogenesis in Notch-expressing HUVECs [5]: effective in inhibiting angiogenesis
number of branch points per field [5]: significantly reduced
network formation by HUVEC [5]: dramatically reduced
